Data: ChEMBL document CHEMBL1138595, “(+/-)-Nantenine analogs as antagonists at human 5-HT(2A) receptors: C1 and flexible congeners” (Bioorg Med Chem Lett, 2009)

Target: 5-hydroxytryptamine receptor 2A (Homo sapiens, UniProt P28223)
Test: Antagonist activity at human 5HT2A receptor expressed in EC80 serotonin-stimulated CHOK1 cells by calcium mobilization assay
Type: functional, cell-based, CHO-K1

Sequence of 5-hydroxytryptamine receptor 2A (P28223 whole entry): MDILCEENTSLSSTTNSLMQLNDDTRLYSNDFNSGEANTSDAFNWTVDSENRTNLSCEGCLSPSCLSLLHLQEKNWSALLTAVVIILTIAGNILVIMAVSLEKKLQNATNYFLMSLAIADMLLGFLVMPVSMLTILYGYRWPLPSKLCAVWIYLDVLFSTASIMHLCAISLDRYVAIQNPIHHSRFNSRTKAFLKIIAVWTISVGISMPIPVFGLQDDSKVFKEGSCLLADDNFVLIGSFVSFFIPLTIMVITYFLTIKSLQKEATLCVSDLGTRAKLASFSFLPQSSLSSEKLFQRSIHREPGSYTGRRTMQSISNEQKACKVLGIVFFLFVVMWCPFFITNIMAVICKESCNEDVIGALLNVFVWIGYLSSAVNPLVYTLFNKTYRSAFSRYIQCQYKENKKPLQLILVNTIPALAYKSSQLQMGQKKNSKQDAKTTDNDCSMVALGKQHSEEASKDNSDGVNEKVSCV

IC50: 4.6 µM
Structure (SMILES): COc1cc2c3c(c1OCc1ccccc1)-c1cc4c(cc1CC3N(C)CC2)OCO4 (stereo unspecified)
